Test results published in US20240041832A1, “METHODS AND COMPOSITIONS FOR TREATING EYE DISEASES” (JENIVISION INC., priority 2021, published 2024).
Where two headings read alike, the source gives them in different places.

Tests used:
PAF receptor = PAF receptor (Homo sapiens, UniProt P25105); conditions: Bley K R et al. (2006); cited from earlier work
vascular IP receptor = vascular IP receptor (Homo sapiens, UniProt P43119); conditions: Jones R L et al. (2006); cited from earlier work
[1] = Rabbit bio-disposition, eye-drop to one eye (OD) (Example 2); assay type: in vivo, New Zealand rabbits
Protocol: In order to verify that drug delivery of JV-DE1 was essentially confined to ocular redistribution other than via the blood circulation following contact of the eye-drop with the anterior segment ocular surface tissues, a monocular drug application study was performed. JV-DE1 was formulated in 2.4% CrEL and 0.2% glycerol in pH 7.6 TBS. CrEL is polyoxyl 35 castor oil. Other names for polyoxyl 35 castor oil include macrogolglycerol ricinoleate, PEG-35 castor oil, and […]. Briefly, for the bio-disposition experiment, JV-DE1 was administered to one eye (OD) via ocular instillation to said eye at a dose of 0.12 mg/eye. Blood samples (1 mL) and were collected at 0, 0.5, 2, 6, and 24 h after a single eye-drop ocular administration. At each of the above time points, one animal was euthanized after blood collection and selected eye tissue samples were collected from both eyes. Aqueous humor, bulbar conjunctiva, anterior sclera, posterior sclera (in the optic nerve exit region), retina, cornea, ciliary body, and iris were collected and weighed. The samples were then stored in an ultra-low temperature freezer. JV-DE1 concentrations in the samples were subsequently determined by the LC-MS/MS method.
JV-DE1 was widely distributed in the ocular tissues of the eye (OD) that received the compound. The concentration of JV-DE1 in ocular tissue levels were well-maintained over an 8 hour period post-dosing but had declined by 24 hours. The cornea, anterior sclera, and bulbar conjunctiva had the highest levels of JV-DE1 in the treated eye, which was about 100-fold greater than the JV-DE1 levels in the ciliary body/iris, posterior sclera, and retina. The most significant finding was the unexpected level of JV-DE1 in the vitreous humor. […] JV-DE1 levels in the retina of the contralateral, untreated eye were, however, one-tenth of those in the treated eye. […] Only about 10% achieved the retina by delivery from the bloodstream.

[2] = Rabbit pharmacokinetics and ocular tissue distribution, eye-drop to both eyes (Example 1); assay type: in vivo, New Zealand rabbits
Protocol: A retinal bioavailability study was performed on 4,5-dihydro-N-[4-[[4-(1-methylethoxy) phenyl] methyl] phenyl]-1H-imadazol-2-amine (assigned the coded notation JV-DE1). This study provided an indication that the compound formulated in an eye-drop and administered bilaterally to the anterior ocular surface was bioavailable in the retina. This pharmacokinetics and ocular tissue distribution study of JV-DE1 was performed in New Zealand rabbits. Briefly, […] (male) received JV-DE1 via ocular instillation to both eyes at a dose of 0.12 mg/eye. Blood samples (1 mL) were collected at 0, 0.5, 2, 4, 8, and 24 h after single ocular administration to both eyes. At each time point, one animal was euthanized after blood collection and then eye tissue samples were collected from both eyes. Aqueous humor, bulbar conjunctiva, anterior sclera, posterior sclera (in the optic nerve exit region), retina, cornea, ciliary body, and iris were collected and weighed. The samples were then stored in an ultra-low temperature freezer. Drug concentrations in the samples were subsequently determined by the LC-MS/MS method. Results are shown in FIG. 2A (right eye) and FIG. 2B (left eye).
JV-DE1 was widely distributed in the ocular tissues, and with no meaningful difference between the left and right eye, since drug administration was bilateral. JV-DE1 ocular tissue levels were well-maintained over an 8 hour period post-dosing but had declined by 24 hours. The cornea, anterior sclera, and bulbar conjunctiva had the highest levels of JV-DE1 in both eyes, whereas JV-DE1 levels were lower in those structures located within the globe. The most significant finding was the unexpectedly high levels of JV-DE1 in the retina and the posterior sclera, which underlies and supports the retina.

[3] = Biodistribution of JV-DE1 after single periorbital skin administration (Example 3); assay type: in vivo, cynomolgus monkeys; conditions: for concentration at 3 h / concentration at 6 h / concentration at 0.5 h / concentration at 24 h: topical; for concentration at 3 h: 160.58 μg/right eye; for concentration at 6 h: 162.23 μg/right eye; for concentration at 0.5 h: 179.12 μg/right eye; for concentration at 24 h: 159.26 μg/right eye
Protocol: An additional experiment on JV-DE1 involving determining its bio-disposition following topical application to the periorbital skin that surrounds the anterior portion of the globe was performed.
JV-DE1 was formulated in medium chain triglyceride (MCT) oil. An amount of about 0.16 mg of JV-DE1 formulation was administered to one eye (OD) by circumferential topical application to the periorbital skin that surrounds the anterior portion of the globe. […] The following representative tissues were collected; upper eyelid, cornea, retina, and vitreous humor. JV-DE1 concentrations in the samples were subsequently determined by the LC-MS/MS method. The results are summarized below in Table 1

IP receptor = target: T1, IP receptor (Homo sapiens, UniProt P43119); conditions: U.S. Pat. No. 9,321,745; cited from earlier work
T1 construct: VEGF release from human immune cells when macrophages were primed with TNFα; endogenous in cells; host or cells: human macrophages primed with TNFα
T1 sequence (P43119 whole entry): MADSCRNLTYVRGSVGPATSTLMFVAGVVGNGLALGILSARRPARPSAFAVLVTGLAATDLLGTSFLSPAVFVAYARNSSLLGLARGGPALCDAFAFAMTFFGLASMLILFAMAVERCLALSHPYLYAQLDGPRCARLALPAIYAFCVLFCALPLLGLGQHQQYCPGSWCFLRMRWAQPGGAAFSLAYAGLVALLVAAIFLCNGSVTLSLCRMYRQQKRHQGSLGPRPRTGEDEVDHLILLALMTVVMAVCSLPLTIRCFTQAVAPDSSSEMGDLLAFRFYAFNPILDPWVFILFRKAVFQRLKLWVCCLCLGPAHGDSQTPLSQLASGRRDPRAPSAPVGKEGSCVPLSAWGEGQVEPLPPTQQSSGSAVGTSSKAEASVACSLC

[4] = 0.5 h, 179.120 μg/right eye periorbital skin
[5] = 3 h, 160.580 μg/right eye periorbital skin
[6] = 6 h, 162.230 μg/right eye periorbital skin
[7] = 24 h, 159.260 μg/right eye periorbital skin

Sequence of vascular IP receptor (P43119 whole entry): as above
Sequence of PAF receptor (P25105 whole entry): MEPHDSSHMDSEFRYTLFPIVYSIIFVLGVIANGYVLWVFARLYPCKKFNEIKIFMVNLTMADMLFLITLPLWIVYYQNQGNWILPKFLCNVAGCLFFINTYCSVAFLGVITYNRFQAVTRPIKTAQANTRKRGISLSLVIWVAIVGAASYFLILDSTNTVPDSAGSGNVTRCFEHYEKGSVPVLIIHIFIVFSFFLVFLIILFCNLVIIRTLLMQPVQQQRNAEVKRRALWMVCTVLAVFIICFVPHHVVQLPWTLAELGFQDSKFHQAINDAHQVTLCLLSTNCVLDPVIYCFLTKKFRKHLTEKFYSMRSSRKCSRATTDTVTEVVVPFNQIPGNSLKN

For `CC(C)Oc1ccc(Cc2ccc(NC3=NCCN3)cc2)cc1` [JV-DE1, 4,5-dihydro-N-[4-[[4-(1-methylethoxy)phenyl]methyl]phenyl]-1H-imadazol-2-amine], the pKi (PAF receptor) is given as 7.9, the pA2 (vascular IP receptor) is given as 8.2 and the Cmax ([1]; New Zealand, rabbit, plasma, topical or ocular, ocular instillation to one eye (OD), 0.12 mg/eye, at 0.5 hours post-dose) is given as 0.95 ng/mL. For the same compound, the “retina level of contralateral untreated eye relative to treated eye” value ([1]; OS vs OD) was “one-tenth”, the “share of drug reaching the retina by delivery from the bloodstream” value ([1]; monocular eye-drop) was “about 10%” and the “share of drug reaching the retina by intra-global redistribution of the eye-drop” value ([1]; monocular eye-drop) was 90%. For the same compound, the “tissues with detectable compound in contralateral untreated eye (OS)” value ([1]; monocular eye-drop to OD) was “detected only in the cornea, posterior sclera, and retina”, the “time to complete clearance from plasma” value ([1]; ocular instillation to one eye (OD), 0.12 mg/eye) was ≤ 24 h and the “levels in cornea, anterior sclera and bulbar conjunctiva relative to ciliary body/iris, posterior sclera and retina” value ([1]; treated eye (OD)) was “about 100 fold”. The “drug level delivered to the anterior chamber of the eye as an eye drop” value ([2]; eye drop) was > 1 µg/g, the “biodistribution dose gradient, eye drops” value ([2]; eye drops) was “cornea≥conjunctiva≥anterior sclera≈iris≥ciliary body≥posterior sclera≥aqueous humor≥retina” and the “retina distribution after eye-drop” value ([2]; eye-drop administration) was “less than 60 ng/g”. The Cmax ([2]; male, New Zealand, rabbit, plasma, topical or ocular, ocular instillation to both eyes, 0.12 mg/eye, at 0.5 hours post-dose) was ~2 ng/mL, the “plasma clearance at 24 hours post dose” value ([2]; ocular instillation to both eyes, 0.12 mg/eye) was “good clearance” and the “% of administered dose, Right cornea” value [3, 4] was 0.00%. The “% of administered dose, Right retina” value [3, 4] was 0.09%, the “% of administered dose, Right upper eyelid” value [3, 4] was 0.64% and the “% of administered dose, Right vitreous humor” value [3, 4] was 4.67%. For the same compound, the “% of administered dose, Right cornea” value [3, 5] was 0.00%, the “% of administered dose, Right retina” value [3, 5] was 0.26% and the “% of administered dose, Right upper eyelid” value [3, 5] was 1.50%. The “% of administered dose, Right vitreous humor” value [3, 5] was 2.91%, the “% of administered dose, Right cornea” value [3, 6] was 0.00% and the “% of administered dose, Right retina” value [3, 6] was 0.25%. For the same compound, the “% of administered dose, Right upper eyelid” value [3, 6] was 0.48%, the “% of administered dose, Right vitreous humor” value [3, 6] was 3.13% and the “% of administered dose, Right cornea” value [3, 7] was 0.00%. The “% of administered dose, Right retina” value [3, 7] was 0.05%, the “% of administered dose, Right upper eyelid” value [3, 7] was 0.60% and the “% of administered dose, Right vitreous humor” value [3, 7] was 1.79%. For the same compound, the “Drug Concentration in Plasma” value ([3]; 24 h, 159.260 μg/right eye periorbital skin, animal 104, LLOQ 0.1 ng/ml) was “BLQ”, the “drug level in retina at all tested time points” value ([3]; NIODP 165.30±4.65 μg/eye (OD)) was “greater than 1000 ng/g” and the “drug level delivered to retina via NIODP” value ([3]; all tested time points) was > 1 µg/g. The plasma concentrations ([3]; all time points, LLOQ 0.1 ng/ml) was “less than 0.3 ng/ml”, the Cmax ([3]; cynomolgus monkey, plasma, topical or ocular, 0.16 mg, single dose monocular periorbital administration, over the 6 hour post-dose period) was 0.13 to 0.26 ng/mL and the concentration at 3 h ([3]; cynomolgus monkey, plasma, 3 h, 160.580 μg/right eye periorbital skin, animal 102, read-out: Drug Concentration in Plasma) was 0.21 ng/mL. The concentration at 6 h ([3]; cynomolgus monkey, plasma, 6 h, 162.230 μg/right eye periorbital skin, animal 103, read-out: Drug Concentration in Plasma) was 0.26 ng/mL, the concentration at 0.5 h ([3]; cynomolgus monkey, plasma, 0.5 h, 179.120 μg/right eye periorbital skin, animal 101, read-out: Drug Concentration in Plasma) was 0.131 ng/mL and the concentration at 24 h ([3]; cynomolgus monkey, right cornea, 24 h, 159.260 μg/right eye periorbital skin, read-out: Drug Concentration in Tissue, Right cornea) was 5.5 ng/g. It also gave a concentration at 3 h ([3]; cynomolgus monkey, right cornea, 3 h, 160.580 μg/right eye periorbital skin, read-out: Drug Concentration in Tissue, Right cornea) of 27.9 ng/g, a concentration at 6 h ([3]; cynomolgus monkey, right cornea, 6 h, 162.230 μg/right eye periorbital skin, read-out: Drug Concentration in Tissue, Right cornea) of 45.5 ng/g and a concentration at 0.5 h ([3]; cynomolgus monkey, right cornea, 0.5 h, 179.120 μg/right eye periorbital skin, read-out: Drug Concentration in Tissue, Right cornea) of 39.6 ng/g. It also gave a concentration at 24 h ([3]; cynomolgus monkey, right retina, 24 h, 159.260 μg/right eye periorbital skin, read-out: Drug Concentration in Tissue, Right retina) of 1620 ng/g, a concentration at 3 h ([3]; cynomolgus monkey, right retina, 3 h, 160.580 μg/right eye periorbital skin, read-out: Drug Concentration in Tissue, Right retina) of 16700 ng/g and a concentration at 6 h ([3]; cynomolgus monkey, right retina, 6 h, 162.230 μg/right eye periorbital skin, read-out: Drug Concentration in Tissue, Right retina) of 23900 ng/g. For the same compound, the concentration at 0.5 h ([3]; cynomolgus monkey, right retina, 0.5 h, 179.120 μg/right eye periorbital skin, read-out: Drug Concentration in Tissue, Right retina) was 9300 ng/g, the concentration at 24 h ([3]; cynomolgus monkey, right upper eyelid, 24 h, 159.260 μg/right eye periorbital skin, read-out: Drug Concentration in Tissue, Right upper eyelid) was 11600 ng/g and the concentration at 3 h ([3]; cynomolgus monkey, right upper eyelid, 3 h, 160.580 μg/right eye periorbital skin, read-out: Drug Concentration in Tissue, Right upper eyelid) was 32500 ng/g. For the same compound, the concentration at 6 h ([3]; cynomolgus monkey, right upper eyelid, 6 h, 162.230 μg/right eye periorbital skin, read-out: Drug Concentration in Tissue, Right upper eyelid) was 7950 ng/g, the concentration at 0.5 h ([3]; cynomolgus monkey, right upper eyelid, 0.5 h, 179.120 μg/right eye periorbital skin, read-out: Drug Concentration in Tissue, Right upper eyelid) was 26500 ng/g and the concentration at 24 h ([3]; cynomolgus monkey, right vitreous humor, 24 h, 159.260 μg/right eye periorbital skin, read-out: Drug Concentration in Tissue, Right vitreous humor) was 19 ng/g. For the same compound, the concentration at 3 h ([3]; cynomolgus monkey, right vitreous humor, 3 h, 160.580 μg/right eye periorbital skin, read-out: Drug Concentration in Tissue, Right vitreous humor) was 7.79 ng/g, the concentration at 6 h ([3]; cynomolgus monkey, right vitreous humor, 6 h, 162.230 μg/right eye periorbital skin, read-out: Drug Concentration in Tissue, Right vitreous humor) was 3.9 ng/g and the concentration at 0.5 h ([3]; cynomolgus monkey, right vitreous humor, 0.5 h, 179.120 μg/right eye periorbital skin, read-out: Drug Concentration in Tissue, Right vitreous humor) was 15.2 ng/g. The “biodistribution via NIODP” value ([3]; periorbital skin) was “eyelid≥retina>>cornea≥vitreous humor”, the “time to complete clearance from plasma” value ([3]; single dose monocular periorbital administration) was ≤ 24 h and the “VEGF release induced by cicaprost in the presence of TNFα” value (IP receptor) was “abolished”.
